Usually LD50 stands for the dose at which mortality reaches 50%.

One series relates to rat. Nature of the series: in vivo. The note with it: oral, statement on Table I. Here is the method:
(§1) These compositions were also evaluated to determine their peroral toxicity to mammals by conventional methods. The animal selected for this experiment was the rat.

For the next series, the system named is green beans. Put plainly: Phytotoxicity Test, green beans. The series is classed as in vivo. Further details: key: A rating of 1 indicates no perceptible injury; ratings of 2, 3 and 4 indicate intermediate degrees of injury; ratings of 2, 3 and 4 indicate intermediate degrees of injury; ratings of 2, 3 and 4 indicate intermediate degrees of injury; 5 indicates the plant was dead. The note with it: ten days. Here is the method: (§2) Suspensions of the test compounds were prepared by dissolving one gram of compound in 50 milliliters of acetone in which had been dissolved 0.1 gram (10 percent of the weight of compound) of an alkylphenoxy polyethoxyethanol surfactant, as an emulsifying or dispersing agent. The resulting solution was mixed into 150 milliliters of water to give roughly 200 milliliters of a suspension containing the compound in finely divided form. The thus-prepared stock suspension contained 0.5 percent by weight of compound. The test concentrations in parts per million by weight employed in the tests described hereinbelow were obtained by appropriate dilutions of the stock suspension with water. The test procedures were as follows:
(§3) Experiments were also conducted to determine the phytotoxicity of representative compositions with respect to healthy fresh plants. Solutions of the compounds were prepared as described above to provide a concentration of 2500 parts per million of the test compound. The test plants were sprayed in accordance with the procedure described above for the Mite Foliage Spray Test so as to deliver approximately 100 milliliters of test solution to the leaves of each plant tested. The sprayed plants and controls were set aside for approximately one hour to allow the solutions to dry and were then placed in the greenhouse. After ten days the plants were visually inspected to determine the extent of foliage injury. A rating of 1 indicates no perceptible injury; 5 indicates the plant was dead and ratings of 2, 3 and 4 indicate intermediate degrees of injury based upon the number and extent to which leaves were injured.

For another series, the system named is corn. Put plainly: Phytotoxicity Test, corn. It counts as in vivo. Also on record: key: A rating of 1 indicates no perceptible injury; ratings of 2, 3 and 4 indicate intermediate degrees of injury; ratings of 2, 3 and 4 indicate intermediate degrees of injury; ratings of 2, 3 and 4 indicate intermediate degrees of injury; 5 indicates the plant was dead. The note with it: ten days. Here is the method: as §2, §3

The next series has as its system tomato. Put plainly: Phytotoxicity Test, tomato. The series is classed as in vivo. Also on record: key: A rating of 1 indicates no perceptible injury; ratings of 2, 3 and 4 indicate intermediate degrees of injury; ratings of 2, 3 and 4 indicate intermediate degrees of injury; ratings of 2, 3 and 4 indicate intermediate degrees of injury; 5 indicates the plant was dead. The note with it: ten days. Here is the method:
as §2, §3

The next series deals with cotton. Nature of the series: Phytotoxicity Test, cotton. The series is classed as in vivo. Further details: key: A rating of 1 indicates no perceptible injury; ratings of 2, 3 and 4 indicate intermediate degrees of injury; ratings of 2, 3 and 4 indicate intermediate degrees of injury; ratings of 2, 3 and 4 indicate intermediate degrees of injury; 5 indicates the plant was dead. The note with it: ten days. Here is the method: as §2, §3

For another series, the system named is soybeans. Put plainly: Phytotoxicity Test, soybeans. It counts as in vivo. Further details: key: A rating of 1 indicates no perceptible injury; ratings of 2, 3 and 4 indicate intermediate degrees of injury; ratings of 2, 3 and 4 indicate intermediate degrees of injury; ratings of 2, 3 and 4 indicate intermediate degrees of injury; 5 indicates the plant was dead. The note with it: ten days. The procedure:
as §2, §3

A further series is described as follows: in vivo. Conditions: rat, in vivo, po. Here is the method:
as §1

Series [1] relates to bean aphid (Aphis fabae Scop.). Put plainly: whole plant or invertebrate. Conditions: foliar, 24 h, read-out: Insect Toxicity, % Kill at 250 ppm, BA.
In series [2] the test system is two-spotted mite (Tetranychus urticae Koch). Put plainly: whole plant or invertebrate. The note with it: foliar, 144 h, read-out: Insect Toxicity, % Kill at 250 ppm, TSM.
The subject of series [3] is southern armyworm (Prodenia eridania, (Cram.)). Put plainly: whole plant or invertebrate. Conditions: Spodoptera eridania, 72 h, read-out: Insect Toxicity, % Kill at 250 ppm, SAW.
The subject of series [4] is Mexican bean beetle (Epilachna varivestis, Muls.). Put plainly: whole plant or invertebrate. The note with it: 72 h, read-out: Insect Toxicity, % Kill at 250 ppm, MBB.
The subject of series [5] is house flies (Musca domestica, L.). Nature of the series: whole plant or invertebrate. Conditions: po, 24 h, read-out: Insect Toxicity, % Kill at 250 ppm, HF.

Regarding `CSC(C)=NOC(=O)N(C)SN1CCOCC1` [Compound 3, S-Methyl N-[N'-Methyl-N'-(4-Morpholinosulfenyl)carbamoyloxy]-thioacetimidate], the “mammalian toxicity (in words)” value in the series on rat was “extremely low mammalian toxicity”. Also, the “Crop Phytotoxicity, Injury Rating at 2500 ppm, GB” value (“Crop Phytotoxicity … GB” for short) in the series with green beans is 1. In addition, the “Crop Phytotoxicity, Injury Rating at 2500 ppm, CN” value (shortened to “Crop Phytotoxicity … CN”) in the series with corn is listed as 1. In the series with tomato, the “Crop Phytotoxicity, Injury Rating at 2500 ppm, TOM” value (“Crop Phytotoxicity … TOM” below) is 1. Besides, the “Crop Phytotoxicity, Injury Rating at 2500 ppm, COT.” value (shortened to “Crop Phytotoxicity … COT.”) in the series on cotton turned out to be 1. In the series with soybeans, the “Crop Phytotoxicity, Injury Rating at 2500 ppm, SOYBN.” value (from here on “Crop Phytotoxicity … SOYBN.”) turned out to be 1.

In the series “in vivo”, `CCSC(C)=NOC(=O)N(C)SN1CCOCC1` [Compound 4, S-Ethyl-N-[N'-Methyl-N'-(4-Morpholinosulfenyl)Carbamoyloxy]Thioacetimidate] yielded an LD50 of 141 mg/kg. Moreover, in the series on rat, the “mammalian toxicity (in words)” value is “extremely low mammalian toxicity”. Also, the “Crop Phytotoxicity … GB” value in the series on green beans came out at 1. The “Crop Phytotoxicity … CN” value with corn is 1. In the series on tomato, the “Crop Phytotoxicity … TOM” value is given as 1. The “Crop Phytotoxicity … COT.” value with cotton was 1. The “Crop Phytotoxicity … SOYBN.” value in the series on soybeans was 2. Moreover, the mortality at 250 ppm in [1], in [2], in series [3], in [4] and in series [5] was 100% throughout.

For the compound `CSC(C)=NOC(=O)N(C)SN(C)C` [Compound 11, S-Methyl N-[N'-Methyl-N'-(Dimethylaminosulfenyl)carbamoyloxy]thioacetimidate], in “in vivo”, the LD50 was 141 mg/kg. Moreover, in the series on rat, the “mammalian toxicity (in words)” value is recorded as “extremely low mammalian toxicity”. In the series on green beans, the “Crop Phytotoxicity … GB” value stood at 1. The “Crop Phytotoxicity … CN” value in the series with corn was 1. Further, the “Crop Phytotoxicity … TOM” value in the series with tomato worked out at 2. For the same compound, the “Crop Phytotoxicity … COT.” value with cotton worked out at 1. Moreover, in the series on soybeans, the “Crop Phytotoxicity … SOYBN.” value came to 1. The mortality at 250 ppm is 100% in series [1]; 50% in [2]; 100% in series [3]; 100% in series [4]; 100% in series [5].

Turning to `CSC(C)=NOC(=O)N(C)SN1CCCCC1` [Compound 12, S-Methyl-N-[N'-Methyl-N'-(1-Piperidinosulfenyl)Carbamoyloxy]Thioacetimidate], in “in vivo”, the LD50 is 141 mg/kg. Besides, the “mammalian toxicity (in words)” value in the series on rat was “extremely low mammalian toxicity”. Besides, in the series with green beans, the “Crop Phytotoxicity … GB” value is given as 1. Further, the “Crop Phytotoxicity … CN” value in the series with corn turned out to be 1. In the series on tomato, the “Crop Phytotoxicity … TOM” value is on record as 1. Also, in the series on cotton, the “Crop Phytotoxicity … COT.” value came to 1. In addition, the “Crop Phytotoxicity … SOYBN.” value with soybeans amounted to 1. Further, the mortality at 250 ppm in [1], in [2], in series [3], in [4] and in [5] was 100% throughout.

`CCN(CC)SN(C)C(=O)ON=C(C)SC` [Compound 17] returned an LD50 in “in vivo” of 178 mg/kg. The “mammalian toxicity (in words)” value in the series with rat is on record as “extremely low mammalian toxicity”. For the same compound, the “Crop Phytotoxicity … GB” value with green beans is 2. For the same compound, the “Crop Phytotoxicity … CN” value with corn came to 2. For the same compound, the “Crop Phytotoxicity … TOM” value in the series on tomato amounted to 1. The “Crop Phytotoxicity … COT.” value in the series on cotton was 2. Also, the “Crop Phytotoxicity … SOYBN.” value in the series on soybeans amounted to 2. For the same compound, the mortality at 250 ppm in series [1] amounted to 100%; in [2], 80%; in series [3] it was 100%; in series [4] it was 100%; in [5] it was 100%.

Compound `CCCCN(CCCC)SN(C)C(=O)ON=C(C)SC` [Compound 28, S-Methyl N-[N'-Methyl-N'-(Di-n-butylaminosulfenyl)Carbamoyloxy]-Thioacetimidate] registered an LD50 in “in vivo” of 317 mg/kg. In addition, the “mammalian toxicity (in words)” value in the series on rat was “extremely low mammalian toxicity”. In addition, the “Crop Phytotoxicity … GB” value in the series with green beans amounted to 1. The “Crop Phytotoxicity … CN” value in the series with corn is recorded as 1. Besides, in the series with tomato, the “Crop Phytotoxicity … TOM” value was 1. In addition, in the series with cotton, the “Crop Phytotoxicity … COT.” value turned out to be 1. For the same compound, in the series on soybeans, the “Crop Phytotoxicity … SOYBN.” value worked out at 1. The mortality at 250 ppm in series [1] is 100%; in series [2], 50%; in series [3], 100%; in series [4], 100%; in series [5] it was 100%.

Values taken from US4315928A, “N-Aminosulfenyl carbamate compounds, compositions and use” (priority 1975, dated 1982).
